Patent publication US20250051319A1 (AUGUSTINE THERAPEUTICS, priority 2021, published 2025)

Experiments:
[1] = molecular target: T1, human full-length recombinant HDAC1 (Homo sapiens (Human), UniProt Q13547); experiment: HDAC1 enzymatic activity assay (alternative protocol, Ac-Gly-Ala-Lys(Ac)-AMC); type: biochemical; settings: 4 nM enzyme, read-out: HDAC1 biochem
Procedure, shortened: (§1)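 Sf9-expressed enzymes (4 nM HDAC1, 5 nM HDAC6) preincubated 10 min at RT with compound, then 60 min with Ac-Gly-Ala-Lys(Ac)-AMC ([…] HDAC1, 40 µM HDAC6); pH 8.0 Tris buffers, HDAC6 buffer with EDTA and DTT. Trypsin/SAHA developer stop, fluorescence 360/450 nm after 15 min; normalized to DMSO (100%) and 10 μM SAHA (0%).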

[2] = molecular target: catalytic domain 2 (CD2) of HDAC6 (Homo sapiens (Human), UniProt Q9UBN7); experiment: Cellular target engagement assay - NanoBRET; type: cell-based; settings: NanoLuc-HDAC6(CD2) in HEK293T cells, 2 hours, read-out: IC50 (HDAC6(CD2) interaction)
[3] = molecular target: T2, human full-length recombinant HDAC6 (Homo sapiens (Human), UniProt Q9UBN7); experiment: HDAC6 enzymatic activity assay (alternative protocol, Ac-Gly-Ala-Lys(Ac)-AMC); type: biochemical; settings: 5 nM enzyme, read-out: HDAC6 biochem
Procedure, shortened: as §1

[4] = molecular target: T1, human full-length recombinant HDAC1; experiment: HDAC1 enzymatic activity assay (Reaction Biology Corporation, RHKKAc fluorogenic peptide); type: biochemical; settings: Reaction Biology Corporation protocol, RHKKAc fluorogenic peptide 10 μM; read-out: HDAC1 biochem
Experimental: (§2) Dose response testing of HDAC6 and HDAC 1 were run at Reaction Biology Corporation (RBC). Inhibition of HDAC enzymes was performed using N-terminal GST tagged human full-length recombinant HDAC6 (H88-30G, SignalChem) and C-terminal FLAG His tag human full-length recombinant HDAC1 produced in insect cells (KDA-21-365, RBC). Enzyme reactions were run in 50 mM Tris-HCl, pH8.0, 137 mM NaCl, 2.7 mM KCl, and 1 mM MgCl2 with 1 mg/ml BSA, 1% DMSO freshly added. 2× enzyme was delivered in the wells of the reaction plate except for the “no enzyme” control wells. In the latter, buffer was added. Compounds in 100% DMSO were delved into the enzyme mixture by acoustic technology (Echo550). Plates are spun down and compounds were incubation with the enzyme for 10 min at room temperature. 2× Fluorogenic peptide from p53 residues 379-382 (RHKKAc, 10 μM final concentration) was added in all wells to initiate the reaction, followed by 1 h incubation at 30° C. Developer containing Trichostatin A was added to stop the reaction and generate fluorescent color. A kinetic measurement was carried out for 20 min with 5 min interval on the Envision plate reader (Perkin Elmer, Ex/Em=360/460). End point reading i.e., plateau of the development reaction was used for analysis. Data was reported by RBC as percentage enzyme activity. Percentage inhibition was calculated by subtracting percentage enzyme activity from 100. IC50 values were calculated using GraphPad Prism 9 based on the log(inhibitor) vs. response—Variable slope (four parameters) equation.

[5] = molecular target: T2, human full-length recombinant HDAC6; experiment: HDAC6 enzymatic activity assay (Reaction Biology Corporation, RHKKAc fluorogenic peptide); type: biochemical; settings: Reaction Biology Corporation protocol, RHKKAc fluorogenic peptide 10 μM; read-out: HDAC6 biochem
Experimental: as §2

T1 sequence (Q13547 whole entry): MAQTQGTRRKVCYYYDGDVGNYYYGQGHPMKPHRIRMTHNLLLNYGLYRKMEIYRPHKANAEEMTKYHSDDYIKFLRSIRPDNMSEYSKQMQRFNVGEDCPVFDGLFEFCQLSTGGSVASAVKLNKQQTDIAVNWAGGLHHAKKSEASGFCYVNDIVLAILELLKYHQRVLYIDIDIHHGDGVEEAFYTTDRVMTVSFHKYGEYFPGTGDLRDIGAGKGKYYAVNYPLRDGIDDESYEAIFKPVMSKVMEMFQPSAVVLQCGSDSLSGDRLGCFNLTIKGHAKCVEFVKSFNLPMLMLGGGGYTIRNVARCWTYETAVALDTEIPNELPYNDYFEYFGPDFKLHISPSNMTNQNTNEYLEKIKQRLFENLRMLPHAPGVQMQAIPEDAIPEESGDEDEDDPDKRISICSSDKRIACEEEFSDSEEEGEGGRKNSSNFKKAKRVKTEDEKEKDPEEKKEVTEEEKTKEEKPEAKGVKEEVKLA
T2 sequence (Q9UBN7 whole entry): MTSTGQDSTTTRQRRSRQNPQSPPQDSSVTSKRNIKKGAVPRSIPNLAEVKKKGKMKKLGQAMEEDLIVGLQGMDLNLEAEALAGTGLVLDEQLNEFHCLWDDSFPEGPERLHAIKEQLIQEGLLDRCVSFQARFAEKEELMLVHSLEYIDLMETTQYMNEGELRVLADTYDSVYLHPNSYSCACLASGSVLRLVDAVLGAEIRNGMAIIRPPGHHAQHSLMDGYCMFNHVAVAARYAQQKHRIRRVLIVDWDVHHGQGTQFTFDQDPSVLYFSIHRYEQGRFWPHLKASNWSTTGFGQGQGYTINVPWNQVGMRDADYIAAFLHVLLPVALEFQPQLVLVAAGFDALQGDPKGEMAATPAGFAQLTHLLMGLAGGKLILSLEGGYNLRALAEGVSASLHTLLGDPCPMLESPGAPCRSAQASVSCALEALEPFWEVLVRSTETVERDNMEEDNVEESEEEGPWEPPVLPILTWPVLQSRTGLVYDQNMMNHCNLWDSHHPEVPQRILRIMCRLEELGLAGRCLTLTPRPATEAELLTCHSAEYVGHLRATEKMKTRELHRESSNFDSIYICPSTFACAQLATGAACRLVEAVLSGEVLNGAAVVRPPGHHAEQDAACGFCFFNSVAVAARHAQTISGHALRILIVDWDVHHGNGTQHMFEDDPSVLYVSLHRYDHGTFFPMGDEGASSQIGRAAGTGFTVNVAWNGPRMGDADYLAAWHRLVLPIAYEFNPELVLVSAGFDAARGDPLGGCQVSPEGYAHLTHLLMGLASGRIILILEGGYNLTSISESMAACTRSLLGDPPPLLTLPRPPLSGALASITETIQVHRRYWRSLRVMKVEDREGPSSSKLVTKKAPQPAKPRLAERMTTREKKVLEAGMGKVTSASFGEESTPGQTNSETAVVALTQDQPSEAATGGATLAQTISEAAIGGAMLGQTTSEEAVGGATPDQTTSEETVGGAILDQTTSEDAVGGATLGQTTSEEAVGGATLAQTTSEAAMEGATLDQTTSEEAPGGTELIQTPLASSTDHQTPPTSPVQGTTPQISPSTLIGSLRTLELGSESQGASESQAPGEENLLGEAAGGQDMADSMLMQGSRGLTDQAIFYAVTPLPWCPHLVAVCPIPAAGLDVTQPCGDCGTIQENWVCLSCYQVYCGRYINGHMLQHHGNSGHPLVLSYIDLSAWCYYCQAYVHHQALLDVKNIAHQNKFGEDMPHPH
Chain of catalytic domain 2 (CD2) of HDAC6 (Q9UBN7 482-800): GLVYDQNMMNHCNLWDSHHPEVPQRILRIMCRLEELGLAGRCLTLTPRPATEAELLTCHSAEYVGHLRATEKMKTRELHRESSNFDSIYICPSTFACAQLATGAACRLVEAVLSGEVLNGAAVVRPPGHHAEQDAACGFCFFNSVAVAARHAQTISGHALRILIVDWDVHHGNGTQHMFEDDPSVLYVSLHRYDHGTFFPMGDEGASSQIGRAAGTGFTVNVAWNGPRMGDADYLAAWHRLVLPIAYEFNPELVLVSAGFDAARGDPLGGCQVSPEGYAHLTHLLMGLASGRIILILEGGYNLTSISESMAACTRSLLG

IC50 [1]: > 10 µM
IC50 [2]: 1 to 10 µM
IC50 [3]: ≤ 0.1 µM
IC50 [4]: > 10 µM
IC50 [5]: ≤ 0.1 µM
SMILES: Cn1ncc2c(SCC(=O)c3ccc(CNC(=O)C4CC4)s3)ncnc21 [Example 31, N-((5-(2-((1-methyl-1H-pyrazolo[3,4-d]pyrimidin-4-yl)thio)acetyl)thiophen-2-yl)methyl)cyclopropanecarboxamide]
